Measured values as given in PMC12214875 (Molecular Cancer Therapeutics, 2025).

Legend:
KIT wildtype = biological target: T1, KIT wildtype (Homo sapiens, UniProt P10721); assay: Biochemical kinase assay (radioactive, Reaction Biology); conditions: average of two independent experiments
T1 construct: purchased Reaction Biology Corp. (contract assay service)

KIT V559A = biological target: T2, KIT V559A (Homo sapiens, UniProt P10721, V559A); assay: as above; conditions: average of two independent experiments
T2 construct: KIT (554-976) Exon JM domain; purchased Reaction Biology Corp. (contract assay service)

KIT V560G = biological target: T3, KIT V560G (Homo sapiens, UniProt P10721, V560G); assay: as above; conditions: average of two independent experiments
T3 construct: KIT (554-976) Exon JM domain; purchased Reaction Biology Corp. (contract assay service)

KIT V560G/D816V = biological target: T4, KIT V560G/D816V (Homo sapiens, UniProt P10721, D816V/V560G); assay: as above; conditions: average of two independent experiments
T4 construct: purchased Reaction Biology Corp. (contract assay service)

CSF1R (FMS) = CSF1R (FMS) (Homo sapiens, UniProt P07333); assay: HotSpot kinase profiling panel (398 kinases); type: biochemical; conditions: 1 μmol/L, single-dose singlicate
Method: (§1) In vitro kinase assays with radioactive assay formats were performed at Reaction Biology Corp. according to their standard protocols. […] IC50 values for KIT-mutant kinases and for FLT3 and VEGFR2 (KDR) were determined with dose–response curves using a 10-dose threefold serial dilution in duplicates. Fitting of dose–response curves and calculation of IC50 values were performed with sigmoidal dose–response equations using GraphPad Prism software (RRID: SCR_002798; version 8).

FLT3 = biological target: T5, FLT3 (Homo sapiens, UniProt P36888); assay: HotSpot kinase profiling panel (398 kinases); type: biochemical; conditions: 1 μmol/L, single-dose singlicate
T5 construct: purchased Reaction Biology Corp. (contract assay service)
Method: as §1

KIT = KIT (Homo sapiens, UniProt P10721); assay: HotSpot kinase profiling panel (398 kinases); type: biochemical; conditions: 1 μmol/L, single-dose singlicate
Method: as §1

LCK = LCK (Homo sapiens, UniProt P06239); assay: HotSpot kinase profiling panel (398 kinases); type: biochemical; conditions: 1 μmol/L, single-dose singlicate
Method: as §1

PDGFRA = PDGFRA (Homo sapiens, UniProt P16234); assay: HotSpot kinase profiling panel (398 kinases); type: biochemical; conditions: 1 μmol/L, single-dose singlicate
Method: as §1

PDGFRB = PDGFRB (Homo sapiens, UniProt P09619); assay: HotSpot kinase profiling panel (398 kinases); type: biochemical; conditions: 1 μmol/L, single-dose singlicate
Method: as §1

[1] = test system: G-402 (PDGFRA overexpression); assay: Cell line viability screen (CellTiter-Glo, 6 days); type: cell-based; conditions: normalized to time zero
KIT A829P = KIT A829P (Homo sapiens, UniProt P10721, A829P); assay: NanoBRET cellular target engagement in HEK293 cells; type: binding; set-up: host or cells: HEK293; conditions: 1 nmol/L, 1 hour
Method: (§2) Binding affinities of test compounds to different KIT-mutant proteins in intact living cells were assessed with NanoBRET assays at Reaction Biology Corp. according to their standard protocols. Briefly, respective KIT-mutant NanoLuc fusion vectors were transiently expressed in HEK293 cells (RRID: CVCL_0045). The cells were pretreated with the respective NanoBRET Tracer and then incubated with test compounds at 1, 10, and 100 nmol/L or DMSO for 1 hour. The NanoBRET NanoGlo substrate was added, and BRET signals were measured on an EnVision 2104 Multilabel Reader [PerkinElmer; 450 nm band pass (donor) and 610 nm long pass (acceptor)]. Dasatinib at a concentration of 10 μmol/L was used as reference for all KIT-mutant forms (except 10 μmol/L CEP-701 was used for KIT^V559D/T670I) and subtracted as background. The target coverage of individual KIT-mutant forms by test compounds was determined by normalizing to the DMSO-treated control.

KIT D816H = KIT D816H (Homo sapiens, UniProt P10721, D816H); assay: as above; type: binding; set-up: host or cells: HEK293; conditions: 1 nmol/L, 1 hour
Method: as §2

KIT D816V = KIT D816V (Homo sapiens, UniProt P10721, D816V); assay: as above; type: binding; set-up: host or cells: HEK293; conditions: 100 nmol/L, 1 hour
Method: as §2

KIT V559D = KIT V559D (Homo sapiens, UniProt P10721, V559D); assay: as above; type: binding; set-up: host or cells: HEK293; conditions: 1 nmol/L, 1 hour
Method: as §2

KIT V654A [2] = biological target: T6, KIT V654A (Homo sapiens, UniProt P10721, V654A); assay: as above; type: binding; set-up: host or cells: HEK293; conditions: 1 nmol/L, 1 hour
Method: as §2
Target sequence in this assay (P10721 26-976 V654A): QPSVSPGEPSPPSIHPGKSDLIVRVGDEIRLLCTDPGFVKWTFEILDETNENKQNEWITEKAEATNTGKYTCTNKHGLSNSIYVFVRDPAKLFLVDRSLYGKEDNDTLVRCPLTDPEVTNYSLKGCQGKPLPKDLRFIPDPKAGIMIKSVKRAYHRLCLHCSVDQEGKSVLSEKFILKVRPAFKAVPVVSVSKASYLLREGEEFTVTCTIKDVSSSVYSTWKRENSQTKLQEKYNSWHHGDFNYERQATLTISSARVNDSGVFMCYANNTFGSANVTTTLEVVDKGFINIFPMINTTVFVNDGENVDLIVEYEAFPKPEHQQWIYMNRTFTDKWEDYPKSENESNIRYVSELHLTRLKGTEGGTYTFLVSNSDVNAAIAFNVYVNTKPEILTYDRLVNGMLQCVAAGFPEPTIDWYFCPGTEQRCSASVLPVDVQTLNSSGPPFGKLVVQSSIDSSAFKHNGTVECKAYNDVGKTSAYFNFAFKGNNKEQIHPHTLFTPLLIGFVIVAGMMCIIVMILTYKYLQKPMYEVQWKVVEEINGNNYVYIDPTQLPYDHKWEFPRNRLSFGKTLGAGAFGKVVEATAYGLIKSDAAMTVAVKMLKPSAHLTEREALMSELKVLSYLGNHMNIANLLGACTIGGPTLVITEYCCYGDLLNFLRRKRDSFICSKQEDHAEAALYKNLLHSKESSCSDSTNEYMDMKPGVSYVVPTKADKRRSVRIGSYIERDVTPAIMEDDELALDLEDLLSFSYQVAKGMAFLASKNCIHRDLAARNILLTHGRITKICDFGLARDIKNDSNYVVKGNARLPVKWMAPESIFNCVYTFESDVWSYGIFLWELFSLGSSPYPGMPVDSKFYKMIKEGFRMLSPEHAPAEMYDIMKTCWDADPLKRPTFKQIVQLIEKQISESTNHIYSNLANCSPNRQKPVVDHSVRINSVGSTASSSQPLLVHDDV

KIT V654A [3] = biological target: T6, KIT V654A; assay: Biochemical kinase assay (radioactive, Reaction Biology); set-up: KIT (554-976) Exon 13/14 ATP pocket; purchased Reaction Biology Corp. (contract assay service); conditions: average of two independent experiments
Target sequence in this assay (P10721 554-976 V654A): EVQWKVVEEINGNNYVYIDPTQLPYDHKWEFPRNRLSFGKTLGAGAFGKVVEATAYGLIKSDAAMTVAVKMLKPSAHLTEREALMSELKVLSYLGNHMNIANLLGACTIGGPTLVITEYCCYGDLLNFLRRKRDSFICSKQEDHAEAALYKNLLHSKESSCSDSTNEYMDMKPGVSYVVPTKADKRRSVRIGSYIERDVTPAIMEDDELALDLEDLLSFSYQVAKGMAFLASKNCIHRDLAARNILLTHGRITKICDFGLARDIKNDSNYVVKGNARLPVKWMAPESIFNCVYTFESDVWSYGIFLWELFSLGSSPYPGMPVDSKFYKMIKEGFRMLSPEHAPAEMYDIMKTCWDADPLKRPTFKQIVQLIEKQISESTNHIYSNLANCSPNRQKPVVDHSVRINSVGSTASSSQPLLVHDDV

[4] = 35 mg/kg QD, 2 evaluable animals

T2 sequence (P10721 554-976 V559A): as the sequence (P10721 554-976 V654A) above, with V6A, A101V counted along it
T4 sequence (P10721 544-976 V560G/D816V): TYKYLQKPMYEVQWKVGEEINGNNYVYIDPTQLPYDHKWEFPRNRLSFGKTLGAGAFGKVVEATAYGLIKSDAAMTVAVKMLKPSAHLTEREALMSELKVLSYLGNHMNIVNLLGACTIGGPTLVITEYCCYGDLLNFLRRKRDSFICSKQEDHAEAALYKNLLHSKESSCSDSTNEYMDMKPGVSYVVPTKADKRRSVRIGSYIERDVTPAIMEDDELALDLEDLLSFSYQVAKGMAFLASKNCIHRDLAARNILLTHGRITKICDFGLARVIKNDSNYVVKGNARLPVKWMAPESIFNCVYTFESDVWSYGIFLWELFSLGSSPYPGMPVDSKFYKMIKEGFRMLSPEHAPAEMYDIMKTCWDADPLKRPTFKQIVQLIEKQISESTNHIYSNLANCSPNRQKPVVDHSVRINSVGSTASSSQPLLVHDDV
Chain of KIT A829P (P10721 26-976 A829P): as the sequence (P10721 26-976 V654A) above, with A629V, A804P counted along it
Chain of KIT D816V (P10721 26-976 D816V): as the sequence (P10721 26-976 V654A) above, with A629V, D791V counted along it
Chain of LCK (P06239 whole entry): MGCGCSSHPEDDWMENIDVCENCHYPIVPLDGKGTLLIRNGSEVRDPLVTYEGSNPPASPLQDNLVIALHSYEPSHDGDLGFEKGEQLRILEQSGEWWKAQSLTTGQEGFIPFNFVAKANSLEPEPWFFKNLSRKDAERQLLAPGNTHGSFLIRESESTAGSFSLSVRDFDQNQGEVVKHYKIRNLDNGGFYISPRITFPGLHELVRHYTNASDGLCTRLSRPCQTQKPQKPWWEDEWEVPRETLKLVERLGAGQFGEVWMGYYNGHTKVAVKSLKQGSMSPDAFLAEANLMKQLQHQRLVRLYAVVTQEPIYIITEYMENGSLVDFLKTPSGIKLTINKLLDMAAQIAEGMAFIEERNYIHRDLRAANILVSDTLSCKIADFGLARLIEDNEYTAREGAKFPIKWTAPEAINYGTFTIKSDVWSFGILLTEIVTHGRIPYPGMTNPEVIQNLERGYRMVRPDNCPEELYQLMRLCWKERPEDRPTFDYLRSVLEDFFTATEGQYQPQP
Chain of PDGFRB (P09619 33-1106): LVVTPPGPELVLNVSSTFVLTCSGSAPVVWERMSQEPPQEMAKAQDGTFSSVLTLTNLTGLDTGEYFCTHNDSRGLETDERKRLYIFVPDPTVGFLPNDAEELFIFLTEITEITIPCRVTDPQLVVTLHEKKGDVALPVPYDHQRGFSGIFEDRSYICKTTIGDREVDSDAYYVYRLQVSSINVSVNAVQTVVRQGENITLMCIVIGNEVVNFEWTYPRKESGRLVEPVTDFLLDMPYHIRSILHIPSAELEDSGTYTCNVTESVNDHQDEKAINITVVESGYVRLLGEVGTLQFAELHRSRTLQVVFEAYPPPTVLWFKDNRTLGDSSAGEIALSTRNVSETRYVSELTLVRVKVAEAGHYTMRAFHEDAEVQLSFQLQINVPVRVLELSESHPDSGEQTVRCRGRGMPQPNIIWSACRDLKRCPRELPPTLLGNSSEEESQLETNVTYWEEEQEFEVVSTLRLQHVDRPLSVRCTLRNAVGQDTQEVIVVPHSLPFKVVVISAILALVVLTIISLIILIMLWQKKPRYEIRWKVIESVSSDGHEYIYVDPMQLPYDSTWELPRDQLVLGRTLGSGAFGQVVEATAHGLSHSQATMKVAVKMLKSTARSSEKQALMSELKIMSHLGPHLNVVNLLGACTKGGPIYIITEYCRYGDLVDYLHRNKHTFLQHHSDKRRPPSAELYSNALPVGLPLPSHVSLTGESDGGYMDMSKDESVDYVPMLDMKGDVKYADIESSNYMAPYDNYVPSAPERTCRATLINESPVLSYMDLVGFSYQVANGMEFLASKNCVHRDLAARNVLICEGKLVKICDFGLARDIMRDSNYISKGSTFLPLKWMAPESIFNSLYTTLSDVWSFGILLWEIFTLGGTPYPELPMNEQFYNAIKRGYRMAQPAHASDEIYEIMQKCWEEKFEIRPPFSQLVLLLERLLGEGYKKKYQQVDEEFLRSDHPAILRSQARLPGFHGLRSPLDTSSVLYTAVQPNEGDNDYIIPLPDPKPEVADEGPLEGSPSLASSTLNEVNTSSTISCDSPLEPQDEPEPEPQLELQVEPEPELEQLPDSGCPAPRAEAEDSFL
T3 sequence (P10721 554-976 V560G): as the sequence (P10721 554-976 V654A) above, with V7G, A101V counted along it
Chain of CSF1R (FMS) (P07333 20-972): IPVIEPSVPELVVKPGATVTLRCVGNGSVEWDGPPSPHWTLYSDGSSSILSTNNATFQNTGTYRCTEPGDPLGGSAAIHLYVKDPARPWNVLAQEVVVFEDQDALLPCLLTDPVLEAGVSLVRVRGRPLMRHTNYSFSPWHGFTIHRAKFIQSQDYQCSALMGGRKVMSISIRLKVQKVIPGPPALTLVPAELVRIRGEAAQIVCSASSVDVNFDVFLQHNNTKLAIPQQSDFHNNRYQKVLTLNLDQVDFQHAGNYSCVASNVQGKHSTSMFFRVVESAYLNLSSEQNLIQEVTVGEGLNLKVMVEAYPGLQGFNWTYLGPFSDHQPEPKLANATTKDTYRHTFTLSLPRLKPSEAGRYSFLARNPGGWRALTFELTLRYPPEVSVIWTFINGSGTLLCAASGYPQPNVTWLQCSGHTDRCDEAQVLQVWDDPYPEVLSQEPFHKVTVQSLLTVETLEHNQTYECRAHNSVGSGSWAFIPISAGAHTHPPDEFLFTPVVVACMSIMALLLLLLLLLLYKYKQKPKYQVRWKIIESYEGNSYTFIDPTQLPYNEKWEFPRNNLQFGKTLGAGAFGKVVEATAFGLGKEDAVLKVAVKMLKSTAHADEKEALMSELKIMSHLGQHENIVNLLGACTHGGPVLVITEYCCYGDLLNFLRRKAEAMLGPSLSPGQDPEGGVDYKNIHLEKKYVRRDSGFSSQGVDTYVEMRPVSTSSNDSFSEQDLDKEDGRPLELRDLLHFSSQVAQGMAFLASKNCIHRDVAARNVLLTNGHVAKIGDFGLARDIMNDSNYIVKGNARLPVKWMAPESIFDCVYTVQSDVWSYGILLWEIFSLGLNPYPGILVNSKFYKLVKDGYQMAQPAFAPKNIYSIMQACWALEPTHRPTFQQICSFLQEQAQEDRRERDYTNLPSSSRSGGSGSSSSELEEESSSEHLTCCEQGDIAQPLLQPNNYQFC
Chain of KIT V559D (P10721 26-976 V559D): as the sequence (P10721 26-976 V654A) above, with V534D, A629V counted along it
T1 sequence (P10721 544-976 limits assumed): as the sequence (P10721 544-976 V560G/D816V) above, with G17V, V273D counted along it
Chain of KIT (P10721 544-976 limits assumed): as the sequence (P10721 544-976 V560G/D816V) above, with G17V, V273D counted along it
Chain of KIT D816H (P10721 26-976 D816H): as the sequence (P10721 26-976 V654A) above, with A629V, D791H counted along it

For `Cn1cc(-c2ccc(CNc3cc(-c4cnc5cc(OCCCN6CCCC6)ccn45)ncn3)cc2)cn1` [M4205], the “Biochemical pIC50” value (KIT wildtype) was 8.2, the “Biochemical pIC50” value (KIT V559A) was greater than 9.3 and the “Biochemical pIC50” value (KIT V560G) was 8.9. The “Biochemical pIC50” value (KIT V560G/D816V) was 7.1, the kinase inhibition (CSF1R (FMS)) was “more than 80%” and the kinase inhibition (FLT3) was “more than 80%”. For the same molecule, the kinase inhibition (KIT) was “more than 80%”, the kinase inhibition (LCK) was “more than 80%” and the kinase inhibition (PDGFRA) was “more than 80%”. For the same molecule, the kinase inhibition (PDGFRB) was “more than 80%”, the GI50 [1] was 23 nM and the “BASO: Basophil count, Mean” value (Hematology in mice; [4]) was 0,5%. The “EOS: Eosinophil count, Mean” value (Hematology in mice; [4]) was 32,65%, the “HCT: Hematocrit, Mean” value (Hematology in mice; [4]) was 36,60% and the “HGB: Hemoglobin concentration, Mean” value (Hematology in mice; [4]) was 11,4 g/dL. The “LUC: Large Unstained Cells count, Mean” value (Hematology in mice; [4]) was 0,8%, the “LYM: Lymphocyte count, Mean” value (Hematology in mice; [4]) was 13,7% and the “MCH, Mean” value (Hematology in mice; [4]) was 17,35 pg. The “MCHC: Mean Corpuscular Hemoglobin Concentration, Mean” value (Hematology in mice; [4]) was 31,2 g/dL, the “MCV: Mean Corpuscular Volume, Mean” value (Hematology in mice; [4]) was 55,6 fL and the “MONO: Monocyte count, Mean” value (Hematology in mice; [4]) was 4,50%. The “NEU: Neutrophil count, Mean” value (Hematology in mice; [4]) was 47,60%, the “PLT: Platelet count, Mean” value (Hematology in mice; [4]) was 1703 nL⁻¹ and the “RBC: Red Blood Cell count, Mean” value (Hematology in mice; [4]) was 6,59 /pL. For the same molecule, the “RET: Reticulocyte count, Mean” value (Hematology in mice; [4]) was 2,97%, the “WBC: White Blood Cell count, Mean” value (Hematology in mice; [4]) was 0,3 /nL and the “Hematology: Cell Count decrease (summary)” value (Hematology in mice; 35 mg/kg and 75 mg/kg, Red Blood Cell, Hematocrit, Hematoglobin, Leukocytes) was “Dose-dependent decrease of”. The “BASO: Basophil count, Mean” value (Hematology in mice; 75 mg/kg QD, 5 animals) was 1,1%, the “EOS: Eosinophil count, Mean” value (Hematology in mice; 75 mg/kg QD, 5 animals) was 18,8% and the “HCT: Hematocrit, Mean” value (Hematology in mice; 75 mg/kg QD, 5 animals) was 29,0%. The “HGB: Hemoglobin concentration, Mean” value (Hematology in mice; 75 mg/kg QD, 5 animals) was 9,2 g/dL, the “LUC: Large Unstained Cells count, Mean” value (Hematology in mice; 75 mg/kg QD, 5 animals) was 1,3% and the “LYM: Lymphocyte count, Mean” value (Hematology in mice; 75 mg/kg QD, 5 animals) was 18,3%. For the same molecule, the “MCH, Mean” value (Hematology in mice; 75 mg/kg QD, 5 animals) was 16,1 pg, the “MCHC: Mean Corpuscular Hemoglobin Concentration, Mean” value (Hematology in mice; 75 mg/kg QD, 5 animals) was 31,9 g/dL and the “MCV: Mean Corpuscular Volume, Mean” value (Hematology in mice; 75 mg/kg QD, 5 animals) was 50,4 fL. The “MONO: Monocyte count, Mean” value (Hematology in mice; 75 mg/kg QD, 5 animals) was 4,0%, the “NEU: Neutrophil count, Mean” value (Hematology in mice; 75 mg/kg QD, 5 animals) was 57,6% and the “PLT: Platelet count, Mean” value (Hematology in mice; 75 mg/kg QD, 5 animals) was 985 nL⁻¹. For the same molecule, the “RBC: Red Blood Cell count, Mean” value (Hematology in mice; 75 mg/kg QD, 5 animals) was 5,74 /pL, the “RET: Reticulocyte count, Mean” value (Hematology in mice; 75 mg/kg QD, 5 animals) was 1,49% and the “WBC: White Blood Cell count, Mean” value (Hematology in mice; 75 mg/kg QD, 5 animals) was 0,2 /nL. The target coverage (KIT A829P) was “over 80%”, the target coverage (KIT D816H) was “over 80%” and the target coverage (KIT D816V) was “over 80%”. For the same molecule, the target coverage (KIT V559D) was “over 80%”, the target coverage (KIT V654A [2]) was “over 80%” and the “Biochemical pIC50” value (KIT V654A [3]) was 7.5.
